Data on one molecule can be found in patent publication US7943603B2, “Medical uses of a selective estrogen receptor modulator in combination with sex steroid precursors” (Endorecherche, Inc., priority 1998, dated 2011).

“Also recorded” adds a separate entry of the source.

One series addresses T1, estrogen receptor (Homo sapiens, UniProt P03372).
T1 sequence (P03372 1-595): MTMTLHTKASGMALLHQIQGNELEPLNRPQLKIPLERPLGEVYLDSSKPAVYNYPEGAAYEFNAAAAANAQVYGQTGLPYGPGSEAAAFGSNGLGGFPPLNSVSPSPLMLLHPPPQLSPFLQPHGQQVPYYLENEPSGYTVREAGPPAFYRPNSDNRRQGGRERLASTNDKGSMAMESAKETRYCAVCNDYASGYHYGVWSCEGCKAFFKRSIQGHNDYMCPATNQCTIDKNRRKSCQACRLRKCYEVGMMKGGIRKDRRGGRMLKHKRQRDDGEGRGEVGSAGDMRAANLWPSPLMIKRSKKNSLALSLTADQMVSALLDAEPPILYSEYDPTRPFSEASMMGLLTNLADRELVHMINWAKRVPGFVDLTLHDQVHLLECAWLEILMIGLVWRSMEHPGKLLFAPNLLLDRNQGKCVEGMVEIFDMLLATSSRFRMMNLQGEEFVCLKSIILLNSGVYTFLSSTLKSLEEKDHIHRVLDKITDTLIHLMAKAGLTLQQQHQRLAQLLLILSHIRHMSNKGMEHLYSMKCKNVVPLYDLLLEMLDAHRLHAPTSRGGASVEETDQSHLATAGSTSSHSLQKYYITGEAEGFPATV
Put plainly: Testing of antiestrogens for function as SERM.

Series [1] concerns DMBA-induced mammary carcinoma. Put plainly: Development of DMBA-induced mammary carcinoma in the rat. The following applies: 279 days after DMBA. The series is classed as in vivo. The procedure: (§1) Female Sprague-Dawley rats [Crl:CD(SD)Br] were obtained at 44-46 days of age from Charles River Canada Inc. (St. Constant, Quebec) and housed 2 per cage in a light (12 h light/day; lights on at 07:15 h)-and temperature (22±2° C.)-controlled environment. Animals received Purina rodent chow and tap water ad libitum. The animal studies were conducted in a Canadian Council on Animal Care (CCAC)-approved facility in agreement with the CCAC Guide for Care and Use of Experimental Animals.
Mammary carcinomas were induced by a single intragastric administration of 20 mg of DMBA (Sigma Chemical Co., St. Louis, Mo.) in 1 ml of corn oil at 50-52 days of age. Two months later, tumor measurement was performed biweekly. The two largest perpendicular diameters of each tumor were recorded with calipers to estimate tumor size as described (Asselin et al., Endocrinology 101: 666-671, 1977). Tumor site, size and number were recorded.
(§2) The animals were randomly divided into groups each containing 20 rats with the exception of 40 animals in the control group. […] Treatment was initiated 3 days before the oral administration of DMBA. EM-800 was synthesized in the Medicinal Chemistry Division of our laboratory while DHEA was purchased from Steraloids Inc., Wilton, N.H.
Many of the control animals and some of EM-800- or DHEA-treated animals were sacrificed by cervical dislocation under isoflurane-induced anesthesia 6 months after DMBA administration because of the too large size of tumors. The values of tumor size and number of these rats at sacrifice, together with those measured at later time intervals from the surviving animals, were used for the later analysis of the incidence of tumors, average tumor number per tumor-bearing rat and average tumor size per tumor-bearing animal. […] Rats were sacrificed 279 days after DMBA administration.
Statistical significance was measured according to the multiple range test of Duncan-Kramer (Biometrics 12: 307-310, 1956). Analysis of the incidence of development of mammary tumors was performed using the Fisher's exact test (Conover, Practical nonparametric statistics, 2nd Edition 153-170, 1980). The data are presented as means±S.E.M.

Series [2] concerns ovariectomized (OVX) nude mice supplemented with estrone. The experiment in a line: Uterine, vaginal and body weight in OVX nude mice bearing ZR-75-1 xenografts. The settings on record: OVX+E1 nude mice, 9.5 months. The procedure:
A posteriori pairwise comparisons were performed using Fisher's test for least significant difference. Main effects and the interaction of treatments on body weight and organ weight were analyzed using a standard two-way ANOVA with interactions. All ANOVAs were performed using SAS program (SAS Institute, Cary, N.C., USA). Significance of differences were declared using a 2-tailed test with an overall level of 5%.

For series [3], the system named is rat. Put plainly: Urine and serum biochemical parameters of bone metabolism. The series is classed as in vivo. The following applies: DHEA 10 mg percutaneously, EM-800 75 μg orally, once daily, alone or in combination, 9 months.
Excerpt: as §2
(§3) Twenty-four-hour urinary samples were collected at the end of the experiment from the first 9 rats of each group following transfer in metabolic cages (Allentown Caging Equipment Co., Allentown, N.J.). Two urinary samples were collected and analyzed on different days for each animal in order to minimize the influence of daily variation. Therefore, each value shown represents the mean of the two measurements performed on two different days. 0.5 ml of toluene was added into the urine collecting tubes to prevent urine evaporation and bacterial growth and the urinary volume was recorded. Trunk blood was collected at sacrifice and was allowed to clot at 4° C. overnight before centrifugation at 3000 rpm for 30 min.
(§4) Fresh samples were used for the assay of urinary creatinine, calcium, and phosphorus as well as serum total alkaline phosphatase (tALP) activity, cholesterol and triglycerides. These biochemical parameters were measured automatically with a Monarch 2000 Chemistry System (Instrumentation Laboratory Co. Lexington, Mass.) under Good Laboratory Practice conditions. Urinary hydroxyproline was measured as described (Podenphant et al., Clinica Chimica Acta 142: 145-148, 1984).

Series [4] relates to rat. The experiment in a line: Serum triglyceride and cholesterol levels after 9-month treatment. The series is classed as in vivo. The following applies: DHEA 10 mg percutaneously, EM-800 75 μg orally, once daily, alone or in combination, 9 months.
Excerpt: as §2, §3, §4

The subject of a further series is female rat. Put plainly: Bone mineral density (DEXA) after 9-month treatment. The series is classed as in vivo. The following applies: DHEA 10 mg percutaneously, EM-800 75 μg orally, once daily, alone or in combination, 9 months. The procedure: as §1, §2
Rats were anesthetized with an i.p. injection of ketamine hydrochloride and diazepam at doses of 50 and 4 mg/kg B.W., respectively. The whole skeleton and the right femur were scanned using dual energy X-ray absorptiometry (DEXA; QDR 2000-7.10C, Hologic, Waltham, Mass.) equipped with a Regional High Resolution software. The scan field sizes were 28.110×17.805 cm and 5.0×1.902 cm, the resolutions were 0.1511×0.0761 cm and 0.0254×0.0127 cm, while the scan speeds were 0.3608 and 0.0956 mm/sec for total skeleton and femur, respectively. Both bone mineral content (BMC) and bone mineral density (BMD) of total skeleton, lumbar spine, and femur were measured on the scan images of total skeleton and femur.

With `CC1=C(c2ccc(OC(=O)C(C)(C)C)cc2)[C@H](c2ccc(OCCN3CCCCC3)cc2)Oc2cc(OC(=O)C(C)(C)C)ccc21` [EM-800, (+)-7-pivaloyloxy-3-(4′-pivaloyloxyphenyl)-4-methyl-2-(4″-(2′″-piperidinoethoxy)phenyl)-2H-benzopyran], the “function as SERM” value at estrogen receptor is on record as “found to function as SERMs”. In addition, the “incidence of DMBA-induced mammary carcinoma (animals with palpable tumors)” value in series [1] (DHEA 10 mg percutaneously, EM-800 75 μg orally, once daily, control 95%) is listed as 38%. The “average tumor number per tumor-bearing animal” value in series [1] (end of experiment, DHEA 10 mg, EM-800 75 μg daily, control 4.7±0.5) turned out to be 1.4±0.3 tumors/animal. The “average tumor area per tumor-bearing animal” value in series [1] (end of experiment, DHEA 10 mg, EM-800 75 μg daily, control 12.8±1.3) is given as 7.7±1.8 cm^2. The same molecule showed a vaginal weight in series [2] (EM-800 15 μg daily) of 23 ± 1 mg. Moreover, the uterine weight in series [2] (EM-800 15 μg orally daily) came to 49 ± 3 mg. Also, the vaginal weight in series [2] (EM-800 50 μg daily) amounted to 15 ± 1 mg. Further, the uterine weight in series [2] (EM-800 50 μg orally daily) was determined as 36 ± 2 mg. The same molecule had a vaginal weight in series [2] (EM-800 100 μg daily) of 11 ± 1 mg. Also, the uterine weight in series [2] (EM-800 100 μg orally daily) was 32 ± 1 mg. Besides, the “effect on body weight adjusted for tumor weight” value in series [2] is given as “No significant effect”. In the series on rat [3], the “decrease of daily urinary calcium excretion versus control” value is reported as “no statistically significant influence”, the “decrease of daily urinary phosphorus excretion versus control” value was “no statistically significant influence”, the “decrease of urinary hydroxyproline/creatinine ratio versus control” value worked out at 48% and the “increase of serum total alkaline phosphatase (tALP) activity versus control” value is on record as “no statistically significant influence; also recorded: no effect”. Also, in the series with rat [4], the “decrease of serum cholesterol levels” value amounted to 45% and the “decrease of serum triglyceride levels” value was determined as 72%. Moreover, in the series with female rat, the “BMD FEMUR” value is listed as 0.3097 ± 0.0047 g/cm2, the “BMD LUMBAR SPINE” value worked out at 0.1888 ± 0.0045 g/cm2, the “BMD TOTAL SKELETON” value was determined as 0.1356 ± 0.0017 g/cm2 and the “increase in BMD of femur versus control” value is listed as “no significant change”. Besides, in the series on female rat, the “increase in BMD of lumbar spine versus control” value is recorded as “no significant change” and the “increase in BMD of total skeleton versus control” value is reported as “no significant change”.
